Assay results taken from ChEMBL document CHEMBL3507680, “University of Dundee, Gates Library screen for HepG2 cell viability”.

Test: Human HepG2 cell viability assay in 384 well format
Type: toxicity, cell-based
Parameters: dose 125 nL, time 70.5 hour; cytotoxicity at 70.5 h: concentration not given beside the values
Conditions: HepG2 cells, read-out: Inhibition

CCn1cnnc1C1CCN(C(=O)c2cnc3ccccc3n2)CC1
cytotoxicity at 70.5 h: -16.4%

CN(CCc1cccs1)C1CCCN(Cc2noc(C3CC3)n2)C1 (stereo not drawn)
cytotoxicity at 70.5 h: 8.79%

CC(C)c1nnc2n1CC(CNCc1ccncc1)CC2 (stereo not drawn)
cytotoxicity at 70.5 h: -3.85%

CN(Cc1cnn(C)c1)C(=O)NC1CCS(=O)(=O)C1 (stereo not drawn)
cytotoxicity at 70.5 h: -6.09%

c1cc(C2CCCN2Cc2nnnn2C2CC2)cs1 (stereo not drawn)
cytotoxicity at 70.5 h: -8.27%

Cn1cc(CCNC(=O)NC2CCS(=O)(=O)C2)cn1 (stereo not drawn)
cytotoxicity at 70.5 h: -1.53%

CNC(=O)CCNC(=O)c1cccc(Cn2nc(C)cc2C)c1
cytotoxicity at 70.5 h: -3.48%

Cc1nn(C)c(N2CCOCC2)c1CNC(C)c1cccnc1 (stereo not drawn)
cytotoxicity at 70.5 h: -8.78%

Cc1ncc(CNC(=O)Nc2cc(C(F)(F)F)c[nH]c2=O)s1
cytotoxicity at 70.5 h: 0.0851%

CN(C)S(=O)(=O)N1CCC(Oc2ccc(C#N)cc2)CC1
cytotoxicity at 70.5 h: -4.56%

Cc1cc(C)n(Cc2ccc(C(=O)NCCN3CCOCC3)cc2)n1
cytotoxicity at 70.5 h: 1.27%

CCc1nnc2n1CCN(C(=O)c1cnc3ccccc3n1)C2
cytotoxicity at 70.5 h: -4.54%

CC(CN1CCN(C)CC1)NC(=O)c1cc(Cl)c2c(c1)OCO2 (stereo not drawn)
cytotoxicity at 70.5 h: -0.705%

CCc1nnc2n1CCN(C(=O)c1ccc3nc(C)c(C)nc3c1)C2
cytotoxicity at 70.5 h: 1.25%

CCc1nnc2n1CCN(C(=O)c1ccc3[nH]cnc3c1)C2
cytotoxicity at 70.5 h: 4.85%

COc1ccc(OC)c(CNCCc2cc(F)cc3c2OCOC3)c1
cytotoxicity at 70.5 h: 9.35%

O=C(CCc1cscn1)NS(=O)(=O)c1ccc2ccccc2c1
cytotoxicity at 70.5 h: -5.17%

c1cc2c(cc1C1CCCN1Cc1nnnn1C1CC1)OCCO2 (stereo not drawn)
cytotoxicity at 70.5 h: 13.7%

CC(C)c1n[nH]c(C2CN(C(=O)CCCn3cccn3)CCO2)n1 (stereo not drawn)
cytotoxicity at 70.5 h: -3.52%

CN(Cc1cnn(C)c1)C(=O)NC1CCC(O)CC1 (stereo not drawn)
cytotoxicity at 70.5 h: -7.28%

Cc1ccc(CNCC2CCc3nnc(C(C)C)n3C2)s1 (stereo not drawn)
cytotoxicity at 70.5 h: -6.69%

CC(C)c1nc(CN(C)C2CCN(Cc3nc(C4CC4)no3)C2)no1 (stereo not drawn)
cytotoxicity at 70.5 h: 12%

CN(C)CC(=O)N1CCc2onc(Cn3cccn3)c2C1
cytotoxicity at 70.5 h: -9.72%

COCC1CC2(CCN(Cc3cccnc3)CC2)CN1C(C)C (stereo not drawn)
cytotoxicity at 70.5 h: -7.91%

Cn1cc(-c2nnn3c2COC(CNCc2ccccn2)C3)cn1 (stereo not drawn)
cytotoxicity at 70.5 h: 14.6%

O=C(c1cccnc1)N1CCC2(CC1)CCN(Cc1ccccn1)C2=O
cytotoxicity at 70.5 h: -9.02%

Cn1cc(-c2nnn3c2COC(CNCc2ccncc2)C3)cn1 (stereo not drawn)
cytotoxicity at 70.5 h: -2.68%

O=C(Cc1cccnc1)N1CCCC2(CCN(CC3CCOCC3)C2)C1 (stereo not drawn)
cytotoxicity at 70.5 h: 1.37%

Cn1cccc1C(=O)N1CCN2C[C@H](Oc3cccnc3)C[C@H]2C1
cytotoxicity at 70.5 h: 21.7%

Cn1cc(-c2nnn3c2COC(CNC(=O)c2cccs2)C3)cn1 (stereo not drawn)
cytotoxicity at 70.5 h: 22.3%

Cn1cc(-c2nnn3c2COC(CNCc2cccnc2)C3)cn1 (stereo not drawn)
cytotoxicity at 70.5 h: 18.5%

O=C(c1ccnnc1)N1CCN2C[C@H](Oc3cccnc3)C[C@H]2C1
cytotoxicity at 70.5 h: -0.791%

O=C(c1cnccn1)N1CCN2C[C@H](Oc3cccnc3)C[C@H]2C1
cytotoxicity at 70.5 h: 4.06%

O=C(c1ccc[nH]1)N1CCC2(CC1)CC(Oc1cccnc1)CO2 (stereo not drawn)
cytotoxicity at 70.5 h: 25%

O=C(c1cnccn1)N1CCC2(CC1)CC(Oc1ccccc1)CO2 (stereo not drawn)
cytotoxicity at 70.5 h: 25.9%

Cc1ccoc1C(=O)N1C[C@H](OCC2CC2)[C@H]2OCCC[C@H]21
cytotoxicity at 70.5 h: -0.347%

COC[C@@H]1CC[C@H]2[C@H](CCN2S(=O)(=O)c2ccc(C)cc2)O1
cytotoxicity at 70.5 h: -4.48%

CS(=O)(=O)N1CCC2(CC1)CC(CC(=O)NCC1CC1)c1ccccc12 (stereo not drawn)
cytotoxicity at 70.5 h: 5.79%

O=c1cc(Cn2cncn2)nc2n1CCCN(Cc1ccoc1)C2
cytotoxicity at 70.5 h: -0.379%

Cc1ccoc1C(=O)N1C[C@@H](OCC2CC2)[C@H]2OCCC[C@H]21
cytotoxicity at 70.5 h: -1.01%

COCCN1C[C@@H]2[C@@H](OC)CCN(C(=O)c3cccc(OC)c3)[C@@H]2C1
cytotoxicity at 70.5 h: 2%

Cc1ccc(CN2CCC3(CC2)C(=O)NCCN3CC2CC2)o1
cytotoxicity at 70.5 h: 8.52%

CN1CCC2(CC1)CN(C(=O)c1cccnc1)Cc1ccccc12
cytotoxicity at 70.5 h: 9.45%

CC(=O)N1CC[C@H]2OCC[C@@H](C(=O)NCc3ccco3)[C@H]2C1
cytotoxicity at 70.5 h: -12.4%

CCCc1cc(NCCCC2CCOC2)n2nccc2n1 (stereo not drawn)
cytotoxicity at 70.5 h: -2.1%

CCc1ccc2nc(NCC(O)CO)cc(C)c2c1 (stereo not drawn)
cytotoxicity at 70.5 h: 1.81%

N[C@@H]1c2ccccc2C2(CCN(c3ccc(C(F)(F)F)cn3)CC2)[C@H]1O
cytotoxicity at 70.5 h: -15.9%

CCC(NC(=O)CCCN1CCCCC1)c1cn2cccnc2n1 (stereo not drawn)
cytotoxicity at 70.5 h: -0.954%

C[C@@H]1CC[C@@H](C)N1C(=O)c1cc(COc2ccccc2)[nH]n1
cytotoxicity at 70.5 h: -0.483%

Nc1nc(CCNc2ncnc3c2CCN(C(=O)C2CC2)C3)cs1
cytotoxicity at 70.5 h: -11.6%

Cc1nc2c(C)cccc2cc1C(=O)N1CCC2(CCNCC2)CC1
cytotoxicity at 70.5 h: -5.65%

O=C(NC1CCCNC1=O)c1ccc2nc(-c3ccc(F)cc3)cn2c1 (stereo not drawn)
cytotoxicity at 70.5 h: 15%

CS(=O)(=O)N1CCCn2nc(CNc3ncccn3)cc2C1
cytotoxicity at 70.5 h: -1.06%

CCc1nc(CN2CC[C@@](O)(CCOC)[C@H](C)C2)cs1
cytotoxicity at 70.5 h: 17.7%

Cc1csc2c(N3CCC(NCCCC4CCOC4)CC3)ncnc12 (stereo not drawn)
cytotoxicity at 70.5 h: 30.5%

CN(C)c1ccc(CN2CCN(c3ccc(C#N)cc3)C(=O)C2)cn1
cytotoxicity at 70.5 h: -7.99%

CNc1ncc(CN(C)Cc2cc(O)c3cc(F)ccc3n2)cn1
cytotoxicity at 70.5 h: -8.18%

O=C1CN(C(=O)c2cc(-c3ccco3)nc3c(Cl)cccc23)CCN1
cytotoxicity at 70.5 h: 9.84%

CCc1ocnc1C(=O)N1CCOC(CCCC(C)C)C1 (stereo not drawn)
cytotoxicity at 70.5 h: -12.3%

CCc1nnc(CN(C)Cc2nc(-c3ccccc3Cl)oc2C)o1
cytotoxicity at 70.5 h: -3.53%

CN(Cc1nncn1C)c1nccc(N2CCC(O)CC2)n1
cytotoxicity at 70.5 h: -4.03%

Cc1cc(N2CCCN(C(=O)CSCC3CC3)CC2)ccn1
cytotoxicity at 70.5 h: -17.7%

CN(Cc1ccoc1)c1ccc(-c2nccn2C)nn1
cytotoxicity at 70.5 h: 26.2%

C/C=C(\C)CN1C[C@H](NC(=O)CCOC)[C@@H](c2ccc(C)o2)C1
cytotoxicity at 70.5 h: -18%

CC(C)n1cnnc1CN(C)C(=O)CCn1cnc2ccccc2c1=O
cytotoxicity at 70.5 h: -17.5%

CCC1(C(=O)O)CCCN(CCOCc2ccccc2)C1 (stereo not drawn)
cytotoxicity at 70.5 h: -9.39%

CCN(Cc1noc(CC(C)C)n1)C[C@]1(O)CCCN2CCCC[C@@H]21
cytotoxicity at 70.5 h: -11.7%

CC(NC(=O)CCCc1ccc(Cl)cc1)c1n[nH]c(=O)[nH]1 (stereo not drawn)
cytotoxicity at 70.5 h: -0.585%

O=C(NC1CC1)[C@H]1C[C@@H]2CCN(Cc3ccc4c(c3)OCO4)C[C@@H]2O1
cytotoxicity at 70.5 h: -12.5%

O=C(NCC1CC1)[C@H]1C[C@@H]2CCN(Cc3ccc4c(c3)OCO4)C[C@@H]2O1
cytotoxicity at 70.5 h: -11.6%

O=C(c1cocn1)N1C[C@H]2CCC[C@@]2(COc2ccccn2)C1
cytotoxicity at 70.5 h: 8.39%

Cc1noc(C)c1C(=O)N1C[C@@H]2COC[C@]2(COc2ccccn2)C1
cytotoxicity at 70.5 h: 10.4%

Cc1cccc(CN2Cc3ccnn3CC(COCC3CC3)C2)n1 (stereo not drawn)
cytotoxicity at 70.5 h: 8.5%

O=C(c1ncccn1)N1C[C@H]2CCC[C@@]2(COc2ccccn2)C1
cytotoxicity at 70.5 h: -6.17%

Cc1ccccc1CC(=O)N1C[C@@H]2COC[C@]2(CN(C)C)C1
cytotoxicity at 70.5 h: -6.68%

O=C([C@@H]1C[C@@H]2CCN(Cc3ccc4c(c3)OCO4)C[C@@H]2O1)N1CCCC1
cytotoxicity at 70.5 h: -11.1%

Cc1nc(CN2CCO[C@H]3[C@H](OCC(=O)N(C)C)CC[C@@H]32)cs1
cytotoxicity at 70.5 h: 17.3%

Cn1nccc1-c1nnn2c1COC(CNCc1nccs1)C2 (stereo not drawn)
cytotoxicity at 70.5 h: 0.565%

Cc1cccc(CN2CCCn3c(nnc3Cn3cccn3)C2)n1
cytotoxicity at 70.5 h: 10.9%

O=C1COC2(CCN(c3ncccn3)CC2)CN1Cc1ccccn1
cytotoxicity at 70.5 h: -5.98%

Cc1nnn2c1COC(CNCc1nccs1)C2 (stereo not drawn)
cytotoxicity at 70.5 h: 2.74%

CC(=O)N1CCC2(CCN(Cc3ccccn3)C2=O)C1 (stereo not drawn)
cytotoxicity at 70.5 h: 3.63%

O=C(C1CC=CC1)N1CCC2(CCN(Cc3ccccn3)C2=O)C1 (stereo not drawn)
cytotoxicity at 70.5 h: 5.7%

CC(C)N1CCOCC2(CCCN(C(=O)CCc3cccnc3)C2)C1 (stereo not drawn)
cytotoxicity at 70.5 h: -6.39%

COc1cc(N2CCC3(CCCN(C(=O)c4cnccn4)C3)C2)ncn1 (stereo not drawn)
cytotoxicity at 70.5 h: 17%

O=C(c1cccnc1)N1CCC2(CC1)CC(Oc1ccccc1)CO2 (stereo not drawn)
cytotoxicity at 70.5 h: 26.5%

Cc1noc(C)c1CN1CCO[C@H]2CN(C(=O)C3CCOCC3)C[C@H]21
cytotoxicity at 70.5 h: -0.225%

c1cnc(N2CCOC3(CCN(CC4CCOC4)CC3)C2)nc1 (stereo not drawn)
cytotoxicity at 70.5 h: 2.18%

O=C(c1cnccn1)N1CCCC2(CCN(c3ncccn3)C2)C1 (stereo not drawn)
cytotoxicity at 70.5 h: 4.46%

Cc1ccc(N2CCC3(CCN(C(=O)c4ccoc4)CC3)CC2)nn1
cytotoxicity at 70.5 h: -4.56%

Cn1ccc(C(=O)N2C[C@H]3CCC[C@@]3(COCc3cccnc3)C2)n1
cytotoxicity at 70.5 h: -0.791%

CN1CC[C@H]2OCC[C@@H](C(=O)NCc3ccco3)[C@@H]2C1
cytotoxicity at 70.5 h: 9.03%

Cc1ccc(S(=O)(=O)N2CC[C@H]3CO[C@H](CN(C)C)[C@H]3C2)cc1
cytotoxicity at 70.5 h: -6.81%

CN1CCOCC2(CCCN(C(=O)c3ccc(-n4cccc4)cc3)C2)C1 (stereo not drawn)
cytotoxicity at 70.5 h: 9.26%

Fc1cnc(N2CCCC3(COCCN(c4nccs4)C3)C2)nc1 (stereo not drawn)
cytotoxicity at 70.5 h: -12.2%

Cc1ccc(C(=O)N2C[C@H]3CCC[C@@]3(COc3ccccn3)C2)nc1
cytotoxicity at 70.5 h: 11.3%

COCC1CC2(CCN(Cc3ccoc3)CC2)CN1C(C)C (stereo not drawn)
cytotoxicity at 70.5 h: -9.47%

O=C(Nc1cccnc1)[C@H]1C[C@H]2OCC[C@H]2N(CC2CC2)C1
cytotoxicity at 70.5 h: -14.8%

CCN(C)c1ncnc2c1CCN(Cc1ccsc1)CC2
cytotoxicity at 70.5 h: 0.529%

Cc1cccc(N2CCC3(CCCN(C(=O)c4cccnc4)C3)C2)n1 (stereo not drawn)
cytotoxicity at 70.5 h: 18.7%

Cc1cccc(N2CCC3(CCCN(C(=O)c4cccnc4)C3)CC2)n1
cytotoxicity at 70.5 h: 0.517%

c1cnc(N2C[C@H]3CN(CC4CCOC4)C[C@H]3C2)nc1 (stereo partly drawn)
cytotoxicity at 70.5 h: -4.56%

c1cnc(N2CCC3(CCN(CC4CCOCC4)CC3)C2)nc1
cytotoxicity at 70.5 h: 0.659%

CN1CC(=O)N(c2ccccc2)CC12CCN(CC1CCOCC1)C2 (stereo not drawn)
cytotoxicity at 70.5 h: 22.5%

Cc1cccc(N2CCC3(CCN(C(=O)c4cccnc4)CC3)C2)n1
cytotoxicity at 70.5 h: 14%

c1cnc(N2CCC3(COCCN(CC4CCOCC4)C3)C2)nc1 (stereo not drawn)
cytotoxicity at 70.5 h: 3.27%

O=c1cc(Cn2cncn2)nc2n1CCCN(CCN1CCCC1)C2
cytotoxicity at 70.5 h: -9.08%

Cc1nc(CO[C@@H]2CC[C@H]3[C@H]2OCCN3Cc2cccnc2)cs1
cytotoxicity at 70.5 h: 14.5%
